Test results: patent publication US8003331B2, “Method for identifying target protein of drug and method for screening therapeutic agent for diabetes using the target protein” (Astellas Pharma Inc., priority 2005, dated 2011)
Entries after “also recorded” stand apart in the source; their conditions may differ.

Columns and labels:
[1] = biological target: T1, human ATP5B (Homo sapiens, UniProt P06576); assay: GST-DHFR / MTX-phenformin GST pull-down of 35S-labeled ATP5B; assay type: binding
T1 construct: an attempt was made to amplify complete length cDNA of human ATP5B; made in house; host or cells: cell-free: TNT Quick Coupled Transcription/Translation System (Promega) from pcDNA-ATP5B; GST-DHFR from E. coli BL21
Procedure: Promega) and 0.74 MBq of a radioisotope (redivue Pro-mix L-[35S]; Amersham) and in accordance with the protocols attached thereto. A 15 μl portion of this human ATP5B protein preparation liquid and 1 μg for each of the GST protein or GST-DHFR, purified on the glutathione Sepharose beads, were mixed and shaken at 4° C. for 1 hour after adding 0.3 ml of buffer A thereto. Thereafter, the protein binding to the GST protein or GST-DHFR on beads was co-precipitated by centrifugation. After repeating this operation 4 times, proteins in the precipitate were separated by SDS polyacrylamide gel electrophoresis in accordance with a conventionally known method, and the protein bound to the probe was detected by an autoradiography.

[2] = biological target: T1, human ATP5B; assay: competitive inhibition of binding of ATP5B and MTX-phenformin; details: MTX-phenformin 10 μM; free phenformin 10 μM; compounds A and B 'addition of 10'
[3] = system: AMPK; assay: AMPK activation ability detection in HeLa S3 cell (anti-phospho AMPK western blotting); assay type: cell-based, human; details: phenformin 1 mM, 1 hr; for phosphorylation level (activation) of AMPK: HeLa S3 cell without ATP5B over-expression (empty vector- or pcDNA-LKB1-transferred), concentration of compounds A and B not given; for activation of AMPK in cell over-expressing human ATP5B: pcDNA-ATP5B-transferred HeLa S3 cell, metformin 10 mM
Procedure: This expression plasmid pcDNA-LKB1 and the pcDNA-ATP5B prepared in the aforementioned Example 5(1) or an empty vector (pcDNA3.1) (Invitrogen) were transferred into HeLa S3 cell. The HeLa S3 cell (ATCC) was cultured in a 6 well culture plate (35 mm in well diameter) until it reached a state of 70% confluent, by adding 2 ml of a minimum essential medium DMEM (Gibco) containing 10% fetal bovine serum (Sigma) to each well of the culture plate. The medium was substituted by 1 ml per well of a serum-free medium OPTI MEM I (Invitrogen), and 3.0 μg/well of each of the empty vector (pcDNA3.1), pcDNA-LKB1 and pcDNA-ATP5B was transiently transferred using Lipofect amine 2000 (Invitrogen). After 12 hours of the culturing, this was substituted by 2 ml/well of DMEM containing 10% of fetal bovine serum from which low molecular substances had been removed by a charcoal treatment, and further cultured for 36 hours. This was further cultured for 1 hour (1 hr) under a condition of adding phenformin (Sigma) to a final concentration of 1 mM or the solvent (DMSO) alone. The medium was discarded, the cells were washed with a phosphate buffer (to be referred to as PBS hereinafter, and then the cells were lysed by adding 0.15 ml of the aforementioned buffer A (however, the NaCl concentration was 150 mM, and various phosphatase inhibitors; 2 mM Na3VO4, 10 mM NaF, 25 mM β-glycerophosphate, 0.2 mM Na2MoO4, 20 nM okadaic acid, were added). The activity of AMPK in the cells was detected at the level of phosphorylation of molecules by a conventionally known SDS electrophoresis and a western blotting which uses an anti-phosphorylation AMPK antibody (Phospho-AMPK-α(Thr172) Antibody, Daiichi Pure Chemicals). In this case, in order to confirm that there is no difference in the amount of protein of AMPKα (an AMPK subunit which undergoes phosphorylation) among samples, a western blotting which uses an anti-AMPKα antibody (Daiichi Pure Chemicals) was simultaneously carried out. […] However, in the cell in which human ATP5B was expressed by transferring pcDNA-ATP5B, activation of AMPK by phenformin treatment was not found.

[4] = system: db/db mouse; assay: blood sugar level and blood lactic acid level in db/db mouse after intraperitoneal administration; assay type: in vivo; details: db/db mice, fasting, metformin 300 mg/kg; for blood lactic acid level: compound 100 mg/kg, 0, 90, 180 minutes; for hypoglycemic action (blood sugar level): compound 100 mg/kg, 90 and 180 minutes, vs vehicle group
Description: As described in the aforementioned Example 6, the compound A and compound B found by the screening method of the present invention have the ability to activate AMPK in cells. Next, whether or not these compounds have the in vivo hypoglycemic action similar to the case of biguanide was examined. At the same time, action of the aforementioned 2 compounds on the increase of blood lactic acid value as an adverse side effect of biguanide was also examined. A total of 15 animals of 11 weeks of age of db/db mouse (BKS.Cg-+Leprdb/+Leprdb/Jcl; CLEA Japan) as a diabetes model mouse were divided into 3 groups, each consisting of 5 animals. […] They were subjected to fasting at the same time with the administration, and blood samples were collected from the tail of each animal 0 minute, 90 minutes and 180 minutes thereafter to measure blood sugar level and blood lactic acid level. The blood sugar level was measured using a simplified blood sugar analyzer (Acu Check Active II; Roche), and the blood lactic acid level was measured using a simplified lactic acid analyzer (Lactate Pro; Arkray Marketing), respectively. In the same manner, 12 animals of the db/db mouse of 18 weeks of age were divided in 3 groups, 4 animals for each. […] In the same manner as the above, they were subjected to fasting at the same time with the administration, and the blood sugar level and blood lactic acid level were respectively measured 0 minute, 90 minutes and 180 minutes thereafter in the same as described in the above.

[5] = system: TNF-α; assay: TNF-α gene expression in HeLa S3 cell (real time PCR, corrected by β-actin); assay type: cell-based, human; details: okadaic acid 50 nM
Procedure: The pcDNA-TARDBP or an empty vector (pcDNA3.1) (Invitrogen) was transferred into HeLa S3 cell. Illustratively, the HeLa S3 cell (ATCC) was firstly cultured in a 12 well culture plate until it reached a state of 70% confluent, by adding 1 ml of a minimum essential medium DMEM (Gibco) containing 10% fetal bovine serum (Sigma) to each well of the culture plate. The medium was substituted by 0.5 ml per well of a serum-free medium OPTI MEM I (Invitrogen), and 0.8 μg/well of the pcDNA-TARDBP or pcDNA3.1 was transiently transferred using Lipofect amine 2000 (Invitrogen). After 12 hours of the culturing, this was substituted by 1 ml/well of DMEM containing 10% of fetal bovine serum and further cultured for 12 hours. This was further cultured for 16 hours under a condition of adding or not adding okadaic acid (Wako Pure Chemical Industries) to a final concentration of 50 nM. In this case, […] was added a part of the cells simultaneously with the okadaic acid treatment. The medium was discarded, the cells were washed twice with ice-cooled PBS, and then these cells were frozen and stored at −80° C.
Total RNA was prepared from each cell frozen in the aforementioned Example 9(2), using a reagent for RNA extraction use (Isogen; Nippon Gene) and in accordance with the instructions attached thereto. The thus prepared each total RNA was then treated with a deoxyribonuclease (Nippon Gene), subjected to phenol/chloroform treatment and ethanol precipitation and dissolved in sterile water. Using 1 μg of this total RNA, its reverse transcription into a single-stranded cDNA was carried out in a system of 20 μl using a kit for reverse transcription reaction use (Advantage™ RT-for-PCR Kit; Clontech).
Six oligonucleotides (SEQ ID NO:97 to SEQ ID NO:102) were designed and synthesized as primers of PCR for the measurement of gene expression quantity. A combination of SEQ ID NO:97 and SEQ ID NO:98 was used for human β-actin gene, and a combination of SEQ ID NO:99 and SEQ ID NO:100 for human TNF-α gene, and a combination of SEQ ID NO:101 and SEQ ID NO:102 for human TARDBP gene, respectively. […]
The expression quantities of human TNF-α gene and human TARDBP gene in each sample were corrected by the expression quantity of β-actin gene based on the following equation. [Corrected expression quantity of TNF-α or TARDBP]=[expression quantity of TNF-α or TARDBP gene (raw data)/[expression quantity of β-actin gene (raw data)]
In comparing the expression quantities of TNF-α and TARDBP genes, relative amounts were calculated by regarding the expression quantity in a cell, into which an empty vector (pcDNA3.1) was transferred and which was treated only with the solvent (DMSO), as 100, with the results sown in FIG. 9 and FIG. 10. […]

Structure (SMILES)	binding with human ATP5B (band of about 60 kDa, autoradiography) ([1]; 10 μM MTX-phenformin fixed to GST-DHFR, wild type ATP5B)	binding to the ATP5B protein with increasing concentration ([1]; MTX-phenformin 1.0, 10, 100 μM)	influence on binding of ATP5B and MTX-phenformin [2]	phosphorylation level (activation) of AMPK [3]	activation of AMPK in cell over-expressing human ATP5B [3]	blood lactic acid level [4]	hypoglycemic action (blood sugar level) [4]	action to accelerate expression of TNF-α ([5]; TARDBP high expression cell, compared with control cell)	increase of expression of TNF-α ([5]; control cell (empty vector HeLa S3), 16 hours)
CN(Cc1cnc2nc(N)nc(N)c2n1)c1ccc(C(=O)N[C@@H](CCC(=O)NCCCNC(=N)NC(=N)N)C(=O)O)cc1.Cl.Cl [MTX-phenformin, (2S)-5-[(3-{[{[amino(imino)methyl]amino}(imino)methyl]amino}propyl)amino]-2-({4-[[(2,4-diaminopteridin-6-yl)methyl](methyl)amino]benzoyl}amino)-5-oxopentanonic acid dihydrochloride]	detected in the form of binding to the GST-DHFR, only under the condition of adding the MTX-phenformin	clearly detected							
Oc1ccccc1/C=N/c1nc[nH]n1 [compound A, 2-[(E)-(1H-1,2,4-triazol-3-ylimino)methyl]phenol]			obstruct binding of ATP5B and MTX-phenformin	significant AMPK activation ability	disappeared	did not induce increase; also recorded: without causing in vivo accumulation of lactic acid	hypoglycemic action after 90 minutes and 180 minutes having a significant difference; also recorded: show hypoglycemic action		
Nc1nc(Cl)c2nc[nH]c2n1 [compound B, 6-chloro-9H-purine-2-amine]			obstruct binding of ATP5B and MTX-phenformin	significant AMPK activation ability	disappeared		hypoglycemic action after 90 minutes and 180 minutes having a significant difference; also recorded: show hypoglycemic action		
CN(C)C(=N)N=C(N)N [metformin]					not found	significant increase	significant hypoglycemic action		
C=C1[C@@H](O)[C@@H]2O[C@]3(CC[C@H](/C=C/[C@@H](C)[C@@H]4CC(C)=C[C@@]5(O[C@H](C[C@@](C)(O)C(=O)O)CC[C@H]5O)O4)O3)CC[C@H]2O[C@@H]1[C@@H](O)C[C@H](C)[C@H]1O[C@@]2(CCCCO2)CC[C@H]1C [okadaic acid]								almost the same	up to 80 times
